Data from ChEMBL document CHEMBL1151382, “A pharmacological study of two bisbenzylisoquinoline alkaloids, thalistyline and obamegine” (J Nat Prod, 1982).
The source made the active and inactive calls. The calls are words filed in the database; no cut-off is given here.

How the values were obtained:
[1] = Blockade of neuromuscular transmission activity in albino Sprague-Dawley rat hemidiaphragm assessed as inhibition of electrically-stimulated phrenic nerve contraction; assay type: functional, tissue-based, Diaphragm
Rattus norvegicus = species on record: Rattus norvegicus; assay: Blockade of neuromuscular transmission activity in albino Sprague-Dawley rat hemidiaphragm assessed as inhibition of electrically-stimulated phrenic nerve contraction at 1 to 30 X 10^-6 M; assay type: functional, tissue-based; details: Diaphragm
Canis familiaris [2] = assay: Cardiovascular effect in anesthetized normotensive iv dosed dog assessed as decrease in mean arterial pressure; assay type: functional, organism-based; details: Canis lupus familiaris; Artery
Canis familiaris [3] = assay: Cardiovascular effect in anesthetized normotensive dog assessed as decrease in mean arterial pressure at 2 mg/kg, iv upto 22 mins; assay type: functional, Canis lupus familiaris, Artery
Canis familiaris [4] = assay: Cardiovascular effect in anesthetized normotensive iv dosed dog assessed as decrease in heart rate; assay type: functional, Canis lupus familiaris
Oryctolagus cuniculus = species on record: Oryctolagus cuniculus; assay: Antagonist activity at alpha adrenergic receptor in rabbit aortic strips assessed as decrease in of phenylephrine-induced contraction at 10^-4 M; assay type: functional
Canis familiaris [5] = assay: Cardiovascular effect in anesthetized normotensive dog assessed as reduction in mean arterial pressure at 2 mg/kg, iv dosed twice with second dose being administered 2.5 hrs interval after the first dose; assay type: functional, Canis lupus familiaris, Artery
Canis familiaris [6] = assay: Toxicity in iv dosed dog assessed as inhibition of respiration; assay type: organism-based, Canis lupus familiaris; details: in vivo
[7] = Antagonist activity at alpha adrenergic receptor in rabbit aortic strips assessed as inhibition of phenylephrine-induced contraction; assay type: functional, Oryctolagus cuniculus
[8] = Antagonist activity at alpha adrenergic receptor in rabbit aortic strips assessed as decrease in of phenylephrine-induced contraction at 3 X 10^-4 M; assay type: functional, Oryctolagus cuniculus; design: scale not given: the % may be the effect or the level left
Canis familiaris [9] = assay: Toxicity in dog at 0.5 to 4 mg/kg, iv; assay type: organism-based, Canis lupus familiaris; design: dose 0.5-4 mg/kg, route intravenous; details: in vivo
Canis familiaris [10] = assay: Cardiovascular effect in anesthetized normotensive dog assessed as decrease in mean arterial pressure at 0.1 to 0.4 mg/kg, iv; assay type: functional, organism-based; details: Canis lupus familiaris, Artery
[11] = Blockade of neuromuscular transmission activity in albino Sprague-Dawley rat hemidiaphragm assessed as inhibition of electrically-stimulated phrenic nerve contraction at 10^-5 M relative to control in presence of Eserine; assay type: functional, Diaphragm; design: scale not given: the % may be the effect or the level left
Canis familiaris [12] = assay: Cardiovascular effect in anesthetized normotensive dog assessed as rise in heart rate at 0.1 mg/kg, iv; assay type: functional, Canis lupus familiaris
Canis familiaris [13] = assay: Cardiovascular effect in anesthetized normotensive dog assessed as fall in heart rate at 0.1 to 0.4 mg/kg, iv; assay type: functional, Canis lupus familiaris; details: dose mg/kg 0.1-0.4
Canis familiaris [14] = assay: Toxicity in dog at > 0.4 mg/kg, iv; assay type: organism-based, Canis lupus familiaris; design: dose 0.4 mg/kg, route intravenous; details: in vivo
[15] = Blockade of neuromuscular transmission activity in albino Sprague-Dawley rat hemidiaphragm assessed as inhibition of electrically-stimulated phrenic nerve contraction at 10^-5 M relative to control; assay type: functional, Diaphragm; design: scale not given: the % may be the effect or the level left
[16] = Protection of albino Sprague-Dawley rat hemidiaphragm from alpha-bungarotoxin blockade assessed as recovery of nerve-stimulated muscle contraction at 3 X 10^-5 M; assay type: functional, Muscle tissue
Canis familiaris [17] = assay: Toxicity in dog assessed as inhibition of respiration at > 0.4 mg/kg, iv; assay type: organism-based, Canis lupus familiaris; design: dose 0.4 mg/kg, route intravenous; details: in vivo

COc1cc2c3cc1Oc1cc(ccc1O)C[C@@H]1c4c(cc(OC)c(O)c4Oc4ccc(cc4)C[C@@H]3N(C)CC2)CC[N+]1(C)C
IC50 [1]: 1420 nM

COc1cc2c3cc1Oc1c(O)c(OC)cc4c1[C@@H](Cc1ccc(O)c(c1)Oc1ccc(cc1)C[C@@H]3N(C)CC2)N(C)CC4 [OBAMEGINE]
Activity (Rattus norvegicus): inactive
Activity (Canis familiaris [2]): Dose-dependent effect
Activity (Canis familiaris [3]): 61 mmHg
Activity (Canis familiaris [4]): 20 bpm
Activity (Oryctolagus cuniculus): Active
Activity (Canis familiaris [5]): 11 mmHg
Activity (Canis familiaris [6]): Non-toxic
pKb [7]: 5.3
Activity [8]: 30%
Activity (Canis familiaris [9]): Non-toxic

COc1ccc(C[C@H]2c3cc(OC)c(OC)c(OC)c3CC[N+]2(C)C)cc1Oc1ccc(C[C@H]2c3cc(OC)c4c(c3CCN2C)OCO4)cc1.[Cl-] [THALISTYLINE]
Activity (Canis familiaris [10]): Active
Activity [11]: 63.8%
IC50 [1]: 4980 nM
Activity (Canis familiaris [12]): 20 bpm
Activity (Canis familiaris [13]): 20 bpm
Activity (Canis familiaris [14]): Toxic
Kb ([7]; Oryctolagus cuniculus, read-out: pA2 (converted)): 468 nM
Activity [15]: 24.7%
Activity [16]: 65.8%
Activity (Canis familiaris [17]): Toxic
